In the NIST ThermoML archive (doi:10.1021/je049656o):
Numbers after ± are expanded uncertainties.

Assay: mn = molality of the nth substance listed, in mol/kg
Settings: 298.15 K, 101.33 kPa, Liquid

## O=c1cc[nH]c(=O)[nH]1 [2,4(1H,3H)-pyrimidinedione] + CO
m1 = 0.000848
  molar enthalpy of solution: 14.9 ± 0.6 kJ/mol
m1 = 0.000858
  molar enthalpy of solution: 15.1 ± 0.6 kJ/mol
m1 = 0.00105
  molar enthalpy of solution: 14 ± 0.56 kJ/mol
m1 = 0.00109
  molar enthalpy of solution: 14 ± 0.56 kJ/mol
m1 = 0.001223
  molar enthalpy of solution: 13.7 ± 0.55 kJ/mol
m1 = 0.001317
  molar enthalpy of solution: 13.7 ± 0.55 kJ/mol

## O=c1[nH]cc(C(F)(F)F)c(=O)[nH]1 [5-(trifluoromethyl)uracil] + CO
m1 = 0.000648
  molar enthalpy of solution: 16 ± 0.64 kJ/mol
m1 = 0.000687
  molar enthalpy of solution: 16.5 ± 0.66 kJ/mol
m1 = 0.000724
  molar enthalpy of solution: 15.7 ± 0.63 kJ/mol
m1 = 0.00076
  molar enthalpy of solution: 15.1 ± 0.6 kJ/mol
m1 = 0.000813
  molar enthalpy of solution: 15 ± 0.6 kJ/mol
m1 = 0.000845
  molar enthalpy of solution: 15.8 ± 0.63 kJ/mol

## O=c1[nH]cc(Br)c(=O)[nH]1 [5-bromouracil] + CO
m1 = 0.000472
  molar enthalpy of solution: 14.8 ± 1.2 kJ/mol
m1 = 0.000548
  molar enthalpy of solution: 14 ± 1.1 kJ/mol
m1 = 0.000563
  molar enthalpy of solution: 15.6 ± 1.2 kJ/mol
m1 = 0.00102
  molar enthalpy of solution: 15 ± 1.2 kJ/mol
m1 = 0.001023
  molar enthalpy of solution: 15.1 ± 1.2 kJ/mol
m1 = 0.00125
  molar enthalpy of solution: 14.6 ± 1.2 kJ/mol

## Oc1ncc(Cl)c(O)n1 [5-chloro-2,4-pyrimidinedione] + CO
m1 = 0.000652
  molar enthalpy of solution: 8.85 ± 0.71 kJ/mol
m1 = 0.000899
  molar enthalpy of solution: 9.62 ± 0.77 kJ/mol
m1 = 0.000901
  molar enthalpy of solution: 9.58 ± 0.77 kJ/mol
m1 = 0.000954
  molar enthalpy of solution: 9.31 ± 0.74 kJ/mol
m1 = 0.000982
  molar enthalpy of solution: 8.83 ± 0.71 kJ/mol
m1 = 0.001245
  molar enthalpy of solution: 8.85 ± 0.71 kJ/mol

## O=c1[nH]cc(F)c(=O)[nH]1 [5-fluoro-2,4(1H,3H)-pyrimidinedione] + CO
m1 = 0.000844
  molar enthalpy of solution: 14.5 ± 0.58 kJ/mol
m1 = 0.000963
  molar enthalpy of solution: 14.4 ± 0.58 kJ/mol
m1 = 0.001039
  molar enthalpy of solution: 14.3 ± 0.57 kJ/mol
m1 = 0.00126
  molar enthalpy of solution: 14.3 ± 0.57 kJ/mol
m1 = 0.001578
  molar enthalpy of solution: 14.3 ± 0.57 kJ/mol
m1 = 0.001848
  molar enthalpy of solution: 14.5 ± 0.58 kJ/mol

## O=c1[nH]cc(I)c(=O)[nH]1 [5-iodouracil] + CO
m1 = 0.000481
  molar enthalpy of solution: 18.3 ± 0.73 kJ/mol
m1 = 0.000487
  molar enthalpy of solution: 18.2 ± 0.73 kJ/mol
m1 = 0.000551
  molar enthalpy of solution: 17.6 ± 0.71 kJ/mol
m1 = 0.000618
  molar enthalpy of solution: 18.3 ± 0.73 kJ/mol
m1 = 0.000626
  molar enthalpy of solution: 18 ± 0.72 kJ/mol
m1 = 0.000769
  molar enthalpy of solution: 17.6 ± 0.7 kJ/mol

## O=c1cc(Cl)[nH]c(=O)[nH]1 [6-chlorouracil] + CO
m1 = 0.000624
  molar enthalpy of solution: 16.8 ± 0.67 kJ/mol
m1 = 0.000862
  molar enthalpy of solution: 17 ± 0.68 kJ/mol
m1 = 0.000948
  molar enthalpy of solution: 17.3 ± 0.69 kJ/mol
m1 = 0.001116
  molar enthalpy of solution: 16.9 ± 0.68 kJ/mol
m1 = 0.001609
  molar enthalpy of solution: 17.9 ± 0.72 kJ/mol
m1 = 0.00168
  molar enthalpy of solution: 17.4 ± 0.7 kJ/mol
